Entries after “also recorded” stand apart in the source; their conditions may differ.
What was measured:
[1] = system: SUM159-PR and MDA231-PR cells; assay: Apoptosis by FACS analysis of Sub-G1 cells; type: cell-based; conditions: for sensitization of Paclitaxel for apoptosis: Paclitaxel-resistant cells (SUM159-PR, MDA231-PR), inhibitor together with Paclitaxel
Experimental: Cell cycle analysis was done by DNA content quantification to quantify the sub-G1 population which is reflective of the extent of cell death. Briefly, the cells were fixed with 70% ethanol and stained with propidium iodide (50 μg/ml) staining. The stained cells were analyzed by FACScalibur (BD Bioscience) and quantified by using CellQuest software (BD bioscience).

p-IRAK1 (T209) = biological target: T1, p-IRAK1 (T209) (Homo sapiens, UniProt P51617); assay: Western blot of p-IRAK1 in immunoprecipitated IRAK1; type: cell-based; conditions: for induction of p-IRAK1 by chemotherapeutic agent: MDA231 (also SUM159) cells, PTX 5 nM, ADR 2 μM, Cisplatin 5 μM, up to 48 hours; for IRAK1 signaling activated by chemotherapeutic agents: discussion statement
T1 construct: The whole cell lysate were extracted with the NE-PER kit (Pierce Biotechnology) and subjected to immunoprecipitation using 2 μg total-IRAK1 antibody; endogenous in cells; host or cells: TNBC cell lines (BT549, MB436, MB468, MDA231, MDA231-LM2, SUM159 and paclitaxel-resistant sublines)
T1 sequence (P51617 whole entry): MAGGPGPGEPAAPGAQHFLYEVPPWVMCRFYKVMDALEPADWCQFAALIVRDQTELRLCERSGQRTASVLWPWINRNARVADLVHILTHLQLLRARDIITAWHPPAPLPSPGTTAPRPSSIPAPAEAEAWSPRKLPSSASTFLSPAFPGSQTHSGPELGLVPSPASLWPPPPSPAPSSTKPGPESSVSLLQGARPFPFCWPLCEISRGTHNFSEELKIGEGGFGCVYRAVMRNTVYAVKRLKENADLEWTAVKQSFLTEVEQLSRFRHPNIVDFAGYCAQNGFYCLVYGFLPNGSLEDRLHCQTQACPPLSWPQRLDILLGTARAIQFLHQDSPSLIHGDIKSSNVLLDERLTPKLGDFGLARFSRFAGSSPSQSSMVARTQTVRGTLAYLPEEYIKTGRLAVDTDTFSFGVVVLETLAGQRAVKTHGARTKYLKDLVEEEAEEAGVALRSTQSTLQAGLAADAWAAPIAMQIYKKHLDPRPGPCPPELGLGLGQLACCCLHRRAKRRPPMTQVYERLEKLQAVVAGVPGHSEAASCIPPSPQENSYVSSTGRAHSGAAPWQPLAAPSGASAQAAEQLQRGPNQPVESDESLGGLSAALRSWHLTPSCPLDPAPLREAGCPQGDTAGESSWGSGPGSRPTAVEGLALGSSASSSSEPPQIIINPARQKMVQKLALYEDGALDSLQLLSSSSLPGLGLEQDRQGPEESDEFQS
Experimental: (§1) Western Blotting was performed as described previously (8). IRAK1 (Cat no: #4359), IRAK4 (Cat no.: 4363), cleaved PARP (Cat no.: #9541), p38 MAPK (Cat no.: #9212), phospho-p38 MAPK (T180/Y182) (Cat no.: #9211), phospho-NF-KappaB p65 (S536) (Cat no. #3031) were purchased from Cell Signaling (Danvers, Mass.). Phospho-IRAK1 (T209) antibody was purchased from Assay Biotech (Sunnyvale, Calif., Cat no.: A1074) and phospho-IRAK1 (S376) antibody from Genetex (Irvine, Calif., Cat no.: GTX50994). MCL-1 antibody was purchased from Santa Cruz Biotechnology (Santa Cruz, Calif., Cat no.: sc-819). Actin was purchased from Sigma-Aldrich (St Louis, Mo., Cat no.: A5441). Detection of bands was performed with the ChemiDoc™ MP Imaging Systems (Bio-Rad, Hercules, Calif.) and bands were subjected to further densitometric analysis with Image Lab software (Version 4.1, Bio-rad, Hercules, Calif.).
Co-IP was performed as described previously (9). The whole cell lysate were extracted with the NE-PER kit (Pierce Biotechnology) and subjected to immunoprecipitation using 2 μg total-IRAK1 antibody (Santa Cruz Biotech, Santa Cruz, Calif., Cat no.: sc-7883). The precipitated protein complex was captured using protein A-Agarose beads (Roche) and extensively washed with the washing buffer (50 mM Tris-HCl, 150 mM NaCl, 0.1% triton). The precipitated proteins were dissolved in SDS sample buffer along with 3 mM DTT, and subjected to immunoblotting analysis. Phospho-IRAK1 (T209) (Assay Biotechnology, Sunnyvale, Calif., Cat no.: A1074) was used for detection.

MDA231-PR cells = assay: Cell viability IC50 curves, sensitivity of paclitaxel-resistant cells to agents; type: cell-based; conditions: for sensitivity of paclitaxel-resistant cells to agent: paclitaxel-treated/resistant cells over-expressing p-IRAK1; for shift of the IC50 curve: MDA231-PR versus parental MDA-MB-231
Description: (§2) FIG. 17. (a). IC50 curves showing cell viability after treatment with paclitaxel (PTX), vincristine (VCR), gemcitabine, doxorubicin (ADR), cisplatin, 5-fluorouracil (5-FU) and pacritinib in parental and pacitaxel-treated MDA-MB-231 (MDA231-PR) cells. (b). Graphical representation of relative sensitivities. (c).
(§3) For cell proliferation assay, the optimal cell seeding was first determined empirically for all cell lines by examining the growth of a wide range of seeding densities in a 96-well format to identify conditions that permitted proliferation for 7 days. Cells were then plated at the optimal seeding density 24 h before siRNA or drug treatment in triplicate. Plates were incubated for 7 days at 37° C. in 5% CO2. Cells were then lysed with CellTiter-Glo (CTG) (Promega, Madison, Wis.) and chemiluminescent signal was detected with a microplate reader on Day 0, 1, 3, 5 and 7. In addition, an untreated plate of cells was harvested at the time of drug or siRNA addition (T0) to quantify the starting number of cells. CTG values obtained after the 7 day treatment were expressed as percentages of the T0 value and plotted against time of treatment.

IRAK1 = IRAK1 (Homo sapiens, UniProt P51617); conditions: cited from earlier work; for ability to inhibit IRAK1: recently reported (ref 38), in vitro and in vivo
IRAK1, sequence (P51617 whole entry, species assumed): as the sequence (P51617 whole entry) above

[2] = system: BT549, MB436, MB468, MDA231 and MDA231-LM2 cells; assay: Mammosphere formation assay; type: cell-based; conditions: Ginsenosides CK and Rb1
Experimental: Active growing cells were treated with 0.05% trypsin for 10 minutes then passed through […] cell strainer to achieve single cell suspension. Cells were plated (MDA231: 1×10^4; MB436: 3×10^4; MB468: 4×10^4 cells/well, BT549: 3×10^4, MDA231-LM2: 3×10^4) seeded in 6-well ultra-low attachment plates (Corning, Corning, N.Y., cat: CLS3471) in Mammocult medium (Stem cell Technologies, Vancouver, BC, Canada), supplemented with fresh hydrocortisone (0.51 μg/ml) and heparin (1:500). Tumorspheres were cultured for 7 days prior to being counted and photographed. Imaging and quantification were done using GelCount™ apparatus and associated software (Oxford Optronix, Abingdon, UK). For serial passages of tumorsphere formation assay, the spheres were collected by gentle centrifugation, dissociated to single cells for passaging tumorspheres every 14 days and counted. Tumorspheres were photographed and quantified 7-12 days later using a GelCount Colony Counter after staining with INT.

[3] = system: MDA231 and SUM159 parental and Paclitaxel-resistant sublines (PR); assay: Cell viability of parental and Paclitaxel-resistant sublines, combination treatment; type: cell-based; conditions: MDA231-PR cells, in combination with PTX
Experimental: as §3

[4] = system: parental MDA-MB-231 cells; assay: Cell viability IC50 curves, sensitivity of parental cells to agents; type: cell-based; conditions: parental MDA231
Description: as §2, §3

[5] = system: p38-MCL-1 signaling in SUM159-PR cells; assay: Western blot of p-p38, MCL-1 and cleaved PARP; type: cell-based; conditions: inhibitor with Paclitaxel
Experimental: as §1

Cc1ccc(S(=O)(=O)/C=C/C#N)cc1 [Bay 117082, BAY-11-7082]
sensitization of Paclitaxel for apoptosis [1]: failed to sensitize

N.N.[Cl][Pt][Cl] [cisplatin]
induction of p-IRAK1 by chemotherapeutic agent (p-IRAK1 (T209)): not seen | sensitivity of paclitaxel-resistant cells to agent (MDA231-PR cells): remained sensitive; also recorded: remained susceptible

O=C(Nc1cc(Cl)cc2c1[nH]c1cnccc12)c1cccnc1 [PS1145]
sensitization of Paclitaxel for apoptosis [1]: failed to sensitize

C1=C/COCc2cc(ccc2OCCN2CCCC2)Nc2nccc(n2)-c2cccc(c2)COC/1 [pacritinib]
effect of treatment on paclitaxel-resistant MDA-MB-231 cells ([1]; compared with IRAK-inh): effects similar to those seen with IRAK-inh | sensitivity of paclitaxel-resistant cells to agent (MDA231-PR cells): sensitive; also recorded: remained susceptible | IRAK1-inhibitory activity (IRAK1; through communication with CTI BioPharma): IRAK1-inhibitory activity

Nc1ccn([C@@H]2O[C@H](CO)[C@@H](O)C2(F)F)c(=O)n1 [gemcitabine]
sensitivity of paclitaxel-resistant cells to agent (MDA231-PR cells): remained sensitive; also recorded: remained susceptible

NS(=O)(=O)c1nn2cc(-c3ccccc3)nc2s1 [JNK inhibitor, AEG 3482]
sensitization of Paclitaxel for apoptosis [1]: not evident

CC(C)=CCC[C@](C)(O[C@@H]1O[C@H](CO)[C@@H](O)[C@H](O)[C@H]1O)[C@H]1CC[C@]2(C)[C@@H]1[C@H](O)C[C@@H]1[C@@]3(C)CC[C@H](O)C(C)(C)[C@@H]3CC[C@]12C [CK, Compound K]
p-IRAK1 in MDA231-LM2 cells (p-IRAK1 (T209); CK 25 μM): inhibit p-IRAK1 | MDA231-LM2 mammosphere growth [2]: abolish; also recorded: inhibit TNBC metastatic growth | effect on Paclitaxel resistance (cell viability and apoptosis) [3]: combat Paclitaxel resistance; also recorded: combat chemoresistance | ability to inhibit IRAK1 (IRAK1): ability to inhibit IRAK1

COc1cccc2c1C(=O)c1c(O)c3c(c(O)c1C2=O)C[C@@](O)(C(=O)CO)C[C@@H]3O[C@H]1C[C@H](N)[C@H](O)[C@H](C)O1 [doxorubicin, Doxorubicin]
induction of p-IRAK1 by chemotherapeutic agent (p-IRAK1 (T209)): not seen | IRAK1 signaling activated by chemotherapeutic agents (p-IRAK1 (T209)): activated | shift of the IC50 curve (MDA231-PR cells): marked right shift

CC[C@]1(O)C[C@H]2CN(CCc3c([nH]c4ccccc34)[C@@](C(=O)OC)(c3cc4c(cc3OC)N(C=O)[C@H]3[C@@](O)(C(=O)OC)[C@H](OC(C)=O)[C@]5(CC)C=CCN6CC[C@]43[C@@H]65)C2)C1 [Vincristine]
IRAK1 signaling activated by chemotherapeutic agents (p-IRAK1 (T209)): activated | shift of the IC50 curve (MDA231-PR cells): marked right shift | sensitivity of paclitaxel-resistant cells to agent (MDA231-PR cells): resistant

O=c1[nH]cc(F)c(=O)[nH]1 [5-fluorouracil]
sensitivity of paclitaxel-resistant cells to agent (MDA231-PR cells): poor | response of parental cells to agent [4]: poor

C[C@@H]1CN(Cc2ccc(F)cc2)[C@@H](C)CN1C(=O)c1cc2c(C(=O)C(=O)N(C)C)cn(C)c2cc1Cl [p38 inhibitor, SCIO 469]
sensitization of Paclitaxel for apoptosis [1]: able to phenocopy IRAK-inh to sensitize Paclitaxel-induced apoptosis | PARP cleavage [5]: increased PARP cleavage | p-p38 and MCL-1 expression [5]: decrease

CC(C)=CCC[C@](C)(O[C@@H]1O[C@H](CO[C@@H]2O[C@H](CO)[C@@H](O)[C@H](O)[C@H]2O)[C@@H](O)[C@H](O)[C@H]1O)[C@H]1CC[C@]2(C)[C@@H]1[C@H](O)C[C@@H]1[C@@]3(C)CC[C@H](O[C@@H]4O[C@H](CO)[C@@H](O)[C@H](O)[C@H]4O[C@@H]4O[C@H](CO)[C@@H](O)[C@H](O)[C@H]4O)C(C)(C)[C@@H]3CC[C@]12C [Rb1, Ginsenoside Rb1]
ability to inhibit IRAK1 (IRAK1): ability to inhibit IRAK1

Reference: patent US10881677B2, “Composition for modulating IRAK1” (Agency for Science, Technology and Research, priority 2015, dated 2021)
